In ChEMBL document CHEMBL3044795, “Synthesis and biological evaluation of novel benzoquinones as potential antimicrobial agents” (2013):
Values after ≈ are worked out from the molar mass of the structure shown.

Assays:
Type in all cases: functional
Staphylococcus aureus [1] = experiment: Antibacterial activity against Staphylococcus aureus DSM 1104 assessed as growth inhibition after 24 hr by two fold serial dilution method; conditions: DSM 1104, 24 h
Staphylococcus aureus [2] = experiment: Antibacterial activity against Staphylococcus aureus DSM 1104 assessed as growth inhibition after 24 hr; conditions: DSM 1104, 24 h
Pseudomonas aeruginosa [3] = experiment: Ratio of Ampicillin MIC to compound MIC for Pseudomonas aeruginosa ATCC 10145
Candida albicans [4] = experiment: Antifungal activity against Candida albicans DSM 70014 assessed as diamater of growth inhibition zone after 48 hr by agar cup diffusion method
Pseudomonas aeruginosa [5] = experiment: Antibacterial activity against Pseudomonas aeruginosa ATCC 10145 assessed as growth inhibition after 24 hr by two-fold serial dilution method; conditions: ATCC 10145, 24 h
Pseudomonas aeruginosa [6] = experiment: Antibacterial activity against Pseudomonas aeruginosa ATCC 10145 assessed as diamater of growth inhibition zone after 24 hr by agar cup diffusion method
Candida albicans [7] = experiment: Antifungal activity against Candida albicans DSM 70014 assessed as growth inhibition after 48 hr; conditions: DSM 70014, 48 h
Bacillus subtilis [8] = experiment: Antibacterial activity against Bacillus subtilis ATCC 6633 assessed as growth inhibition after 24 hr by two fold serial dilution method; conditions: ATCC 6633, 24 h
Escherichia coli [9] = experiment: Antibacterial activity against Escherichia coli ATCC 11775 assessed as growth inhibition after 24 hr by two-fold serial dilution method; conditions: ATCC 11775, 24 h
Bacillus subtilis [10] = experiment: Antibacterial activity against Bacillus subtilis ATCC 6633 assessed as diamater of growth inhibition zone after 24 hr by agar cup diffusion method
Candida albicans [11] = experiment: Antifungal activity against Candida albicans DSM 70014 assessed as growth inhibition after 48 hr by two-fold serial dilution method; conditions: DSM 70014, 48 h
Staphylococcus aureus [12] = experiment: Antibacterial activity against Staphylococcus aureus DSM 1104 assessed as diamater of growth inhibition zone after 24 hr by agar cup diffusion method
Escherichia coli [13] = experiment: Ratio of compound MIC to Ampicillin MIC for Escherichia coli ATCC 11775
Escherichia coli [14] = experiment: Antibacterial activity against Escherichia coli ATCC 11775 assessed as growth inhibition after 24 hr; conditions: ATCC 11775, 24 h
Escherichia coli [15] = experiment: Antibacterial activity against Escherichia coli ATCC 11775 assessed as diamater of growth inhibition zone after 24 hr by agar cup diffusion method
Bacillus subtilis [16] = experiment: Antibacterial activity against Bacillus subtilis ATCC 6633 assessed as growth inhibition after 24 hr; conditions: ATCC 6633, 24 h
Pseudomonas aeruginosa [17] = experiment: Antibacterial activity against Pseudomonas aeruginosa ATCC 10145 assessed as growth inhibition after 24 hr; conditions: ATCC 10145, 24 h

SMILES	MIC (Staphylococcus aureus [1]) [µg/mL]	MBC (Staphylococcus aureus [2]) [µg/mL]	Ratio (Pseudomonas aeruginosa [3])	diameter of the inhibition zone (DIZ) (Candida albicans [4]) [mm]	MIC (Pseudomonas aeruginosa [5]) [µg/mL]	diameter of the inhibition zone (DIZ) (Pseudomonas aeruginosa [6]) [mm]	MFC (Candida albicans [7]) [µg/mL]	MIC (Bacillus subtilis [8]) [µg/mL]	MIC (Escherichia coli [9]) [µg/mL]	diameter of the inhibition zone (DIZ) (Bacillus subtilis [10]) [mm]	MIC (Candida albicans [11]) [µg/mL]	diameter of the inhibition zone (DIZ) (Staphylococcus aureus [12]) [mm]	Ratio (Escherichia coli [13])	MBC (Escherichia coli [14]) [µg/mL]	diameter of the inhibition zone (DIZ) (Escherichia coli [15]) [mm]	MBC (Bacillus subtilis [16]) [µg/mL]	MBC (Pseudomonas aeruginosa [17]) [µg/mL]
COc1ccc(/C=N/N=c2\scc(C3=CC(=O)C=CC3=O)n2-c2ccc(C)cc2)cc1	50 (≈ 116 µM)	50 (≈ 116 µM)	4	14	12.5 (≈ 29.1 µM)	15	50 (≈ 116 µM)	50 (≈ 116 µM)	25 (≈ 58.2 µM)	14	50 (≈ 116 µM)	16	2	50 (≈ 116 µM)	16	50 (≈ 116 µM)	25 (≈ 58.2 µM)
COc1ccc(/C=N/N=c2\scc(-c3cc(O)ccc3O)n2-c2ccccc2)cc1	50 (≈ 120 µM)	50 (≈ 120 µM)		12	50 (≈ 120 µM)	14	50 (≈ 120 µM)	50 (≈ 120 µM)	50 (≈ 120 µM)	15	50 (≈ 120 µM)	14		50 (≈ 120 µM)	14	50 (≈ 120 µM)	50 (≈ 120 µM)
COc1ccc(OC)c(/C=N/N=c2\scc(-c3cc(O)ccc3O)n2-c2ccccc2)c1	50 (≈ 112 µM)	50 (≈ 112 µM)		14	12.5 (≈ 27.9 µM)	16	50 (≈ 112 µM)	12.5 (≈ 27.9 µM)	12.5 (≈ 27.9 µM)	15	25 (≈ 55.9 µM)	16		25 (≈ 55.9 µM)	18	25 (≈ 55.9 µM)	25 (≈ 55.9 µM)
COc1cc(/C=N/N=c2\scc(-c3cc(O)ccc3O)n2-c2ccccc2)ccc1O	12.5 (≈ 28.8 µM)	25 (≈ 57.7 µM)		15	50 (≈ 115 µM)	15	25 (≈ 57.7 µM)	50 (≈ 115 µM)	12.5 (≈ 28.8 µM)	16	12.5 (≈ 28.8 µM)	15		25 (≈ 57.7 µM)	14	50 (≈ 115 µM)	50 (≈ 115 µM)
COc1ccc(/C=N/N=c2\scc(-c3cc(O)ccc3O)n2-c2ccccc2)cc1O	100 (≈ 231 µM)	100 (≈ 231 µM)	4	14	12.5 (≈ 28.8 µM)	12	100 (≈ 231 µM)	12.5 (≈ 28.8 µM)	50 (≈ 115 µM)	15	100 (≈ 231 µM)	16		50 (≈ 115 µM)	24	25 (≈ 57.7 µM)	25 (≈ 57.7 µM)
COc1ccc(/C=N/N=c2\scc(-c3cc(O)ccc3O)n2-c2ccc(C)cc2)cc1	50 (≈ 116 µM)	50 (≈ 116 µM)		15	50 (≈ 116 µM)	16	100 (≈ 232 µM)	50 (≈ 116 µM)	12.5 (≈ 29 µM)	13	100 (≈ 232 µM)	15		25 (≈ 57.9 µM)	15	50 (≈ 116 µM)	50 (≈ 116 µM)
COc1ccc(OC)c(/C=N/N=c2\scc(-c3cc(O)ccc3O)n2-c2ccc(C)cc2)c1	12.5 (≈ 27.1 µM)	25 (≈ 54.2 µM)	2	14	25 (≈ 54.2 µM)	14	50 (≈ 108 µM)	12.5 (≈ 27.1 µM)	25 (≈ 54.2 µM)	17	50 (≈ 108 µM)	14		50 (≈ 108 µM)	17	25 (≈ 54.2 µM)	50 (≈ 108 µM)
COc1ccc(/C=N/N=c2\scc(-c3cc(O)ccc3O)n2-c2ccc(C)cc2)cc1O	25 (≈ 55.9 µM)	50 (≈ 112 µM)	2	14	25 (≈ 55.9 µM)	13	25 (≈ 55.9 µM)	25 (≈ 55.9 µM)	25 (≈ 55.9 µM)	14	12.5 (≈ 27.9 µM)	16		50 (≈ 112 µM)	14	50 (≈ 112 µM)	50 (≈ 112 µM)
